Key:
[1] = test system: 25DKG-Rase derived from Strain K-106; assay: Substrate specificity by product formation, enzyme from K-106; assay type: biochemical, Corynebacterium sp. No. K-106 (ATCC 31,088)
Method: (§1) The purified enzyme solution (10 μl) obtained above (3) was mixed with 25 μmoles of a substrate (Ca-25DKG or 5KF) and 3.0 ml of 0.01M TB (pH 7) containing 15 μmoles of NADPH and the mixture was allowed to react at 30° C. for 60 minutes. After the reaction, the reaction mixture was analyzed by paper chromatography (developing solvent; phenol:formic acid:water=75:4:25, chromogenic agent; AHF solution, prepared by dissolving 0.93 g of anilin and 1.66 g of phthalic acid in 100 ml of water-saturated n-butanol and heating at 105° C. for 2 minutes) and by gas chromatography (column; SE-52, carrier gas: Helium, sample; trimethylsilylated derivative). […] In Table 1, the results of quantitative determination of the products by gas chromatography are shown.
(§2) The measurements of the physico-chemical properties were conducted in a manner as described in Example 1-(4) (5).

[2] = test system: 25DKG-Rase derived from Strain T-13; assay: Enzymatic activity of 25DKG-Rase obtained from T-13 (Example 2); assay type: biochemical, Corynebacterium sp. No. T-13 (ATCC 31,089); conditions: for Enzymatic activity (relative activity): 100 = activity at pH 7, 30° C.
Method: (§3) Two point nine (2.9) ml of 0.1M TB (pH 7) containing 0.3 μmoles of NADPH was placed in a quartz cubette having 1 cm optical length difference and added 1-5 μl of the enzyme solution obtained above (3) thereto. Then, to the mixture, each 0.1 ml of the various substrate solutions (0.1M) were added while being kept at 30° C. Reactivities of the enzyme on the respective substrates were determined, by means of successive measurement of the decrease in absorption at 340 nm, on the basis of the decrease for 1 minute.
as §2
(§4) Enzymatic activities of 25DKG-Rases obtained from K-106 and T-13 were measured at varying pH from 4 to 9 (substrate: Ca-25DKG, reaction temperature: 30° C.).
(§5) The enzymatic activities of 25DKG-Rases obtained from K-106 and T-13 were measured at varying temperature (pH 7.0, substrate: Ca-25DKG).

25DKG-Rase [3] = target: T1, 25DKG-Rase (Corynebacterium sp., UniProt P15339); assay: Spectrophotometric enzymatic activity (decrease in absorption at 340 nm), purified enzyme solution of Example 1; assay type: biochemical, Corynebacterium sp. No. 20A-77 mutant (FERM-BP 108); conditions: for Enzymatic activity: per 1 ml purified enzyme solution
T1 construct: The enzyme is an intracellular enzyme extracted from the cells of the 2KLG producing strain; made in house; host or cells: natural producer Corynebacterium sp; No. 20A-77 mutant FERM-BP 108, enzyme purified from sonicated cells; not recombinant
T1 sequence (P15339 2-277 limits assumed): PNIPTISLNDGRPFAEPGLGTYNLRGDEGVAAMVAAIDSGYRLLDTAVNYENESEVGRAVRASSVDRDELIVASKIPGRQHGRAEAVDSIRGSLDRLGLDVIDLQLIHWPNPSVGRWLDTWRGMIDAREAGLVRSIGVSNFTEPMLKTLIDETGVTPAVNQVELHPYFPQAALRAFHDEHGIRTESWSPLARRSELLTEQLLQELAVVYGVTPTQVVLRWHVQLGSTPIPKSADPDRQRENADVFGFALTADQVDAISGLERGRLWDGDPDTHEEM

[4] = test system: 25DKG-Rase derived from Strain K-106; assay: Enzymatic activity of 25DKG-Rase obtained from K-106 (Example 2); assay type: biochemical, Corynebacterium sp. No. K-106 (ATCC 31,088); conditions: enzyme from K-106, coenzyme NADH
25DKG-Rase [5] = target: T1, 25DKG-Rase; assay type: biochemical, Corynebacterium sp. No. 20A-77 mutant (FERM-BP 108); conditions: 10 μl enzyme solution, 25 μmoles substrate, 15 μmoles NADPH, 30° C., 60 minutes; gas chromatography
[6] = test system: 25DKG-Rase derived from Strain K-106; assay: Enzymatic activity of 25DKG-Rase obtained from K-106 (Example 2); assay type: biochemical, Corynebacterium sp. No. K-106 (ATCC 31,088); conditions: for Enzymatic activity (relative activity): 100 = activity at pH 7, 30° C.
Method: as §3, §2, §4, §5

[7] = test system: 25DKG-Rase derived from Strain T-13; assay: Enzymatic activity of 25DKG-Rase obtained from T-13 (Example 2); assay type: biochemical, Corynebacterium sp. No. T-13 (ATCC 31,089); conditions: enzyme from T-13, coenzyme NADH
[8] = test system: 25DKG-Rase derived from Strain T-13; assay: Substrate specificity by product formation, enzyme from T-13; assay type: biochemical, Corynebacterium sp. No. T-13 (ATCC 31,089)
Method: as §1, §2

## O=C(O)C(=O)[C@@H](O)[C@H](O)C(=O)CO [Ca-25DKG]
[1]
  product formed (substrate specificity): produced only Ca-2KLG
[2]; T-13, 22 °C., pH 7.0
  Enzymatic activity (relative activity): 64
[2]; T-13, 25 °C., pH 7.0
  Enzymatic activity (relative activity): 79
[2]; T-13, 28 °C., pH 7.0
  Enzymatic activity (relative activity): 92
[2]; T-13, 30 °C., pH 7.0
  Enzymatic activity (relative activity): 100
[2]; T-13, 35 °C., pH 7.0
  Enzymatic activity (relative activity): 115
[2]; T-13, 40 °C., pH 7.0
  Enzymatic activity (relative activity): 133
[2]; T-13, 45 °C., pH 7.0
  Enzymatic activity (relative activity): 128
[2]; T-13, 50 °C., pH 7.0
  Enzymatic activity (relative activity): 92
[2]; T-13, pH 4.0, 30° C.
  Enzymatic activity (relative activity): 1
[2]; T-13, pH 5.0, 30° C.
  Enzymatic activity (relative activity): 65
[2]; T-13, pH 6.0, 30° C.
  Enzymatic activity (relative activity): 104
[2]; T-13, pH 7.0, 30° C.
  Enzymatic activity (relative activity): 100
[2]; T-13, pH 8.0, 30° C.
  Enzymatic activity (relative activity): 64
[2]; T-13, pH 9.0, 30° C.
  Enzymatic activity (relative activity): 19
[2]; enzyme from Strain T-13, NADPH
  Enzymatic activity per protein: 89 units/mg protein
[2]; enzyme from Strain T-13, purified enzyme solution, NADPH
  Enzymatic activity: 15.1 units/ml
25DKG-Rase [3]; 15 °C., pH 7
  Enzymatic activity: 14 unit/ml
25DKG-Rase [3]; 25 °C., pH 7
  Enzymatic activity: 29 unit/ml
25DKG-Rase [3]; 27.5 °C., pH 7
  Enzymatic activity: 44 unit/ml
25DKG-Rase [3]; 30 °C., pH 7
  Enzymatic activity: 54 unit/ml
25DKG-Rase [3]; 32.5 °C., pH 7
  Enzymatic activity: 59 unit/ml
25DKG-Rase [3]; 35 °C., pH 7
  Enzymatic activity: 64 unit/ml
25DKG-Rase [3]; 40 °C., pH 7
  Enzymatic activity: 67 unit/ml
25DKG-Rase [3]; 45 °C., pH 7
  Enzymatic activity: 44 unit/ml
25DKG-Rase [3]; 50 °C., pH 7
  Enzymatic activity: 10 unit/ml
25DKG-Rase [3]; NADPH, 0.1M TB pH 7, 30° C.
  Activity of the purified enzyme solution (1 ml): 54 units
25DKG-Rase [3]; pH 4.0, 3,3-dimethylglutaric acid buffer
  Enzymatic activity: 1 unit/ml
25DKG-Rase [3]; pH 5.0, 3,3-dimethylglutaric acid buffer
  Enzymatic activity: 22 unit/ml
25DKG-Rase [3]; pH 6.0, Good (PIPES) buffer
  Enzymatic activity: 59 unit/ml
25DKG-Rase [3]; pH 6.5, Good (PIPES) buffer
  Enzymatic activity: 57 unit/ml
25DKG-Rase [3]; pH 7.0, Good (PIPES) buffer
  Enzymatic activity: 53 unit/ml
25DKG-Rase [3]; pH 7.0, Tris buffer
  Enzymatic activity: 54 unit/ml
25DKG-Rase [3]; pH 7.5, Tris buffer
  Enzymatic activity: 44 unit/ml
25DKG-Rase [3]; pH 8.0, Tris buffer
  Enzymatic activity: 32 unit/ml
25DKG-Rase [3]; pH 8.5, Tris buffer
  Enzymatic activity: 11 unit/ml
25DKG-Rase [3]; pH 9.0, Tris buffer
  Enzymatic activity: 7 unit/ml
[4]
  enzymatic activity using NADH as the coenzyme: ≤ 0.1 unit/ml
25DKG-Rase [5]
  Concentration of the product: 845 µg/mL
[6]; K-106, 22 °C., pH 7.0
  Enzymatic activity (relative activity): 46
[6]; K-106, 25 °C., pH 7.0
  Enzymatic activity (relative activity): 69
[6]; K-106, 28 °C., pH 7.0
  Enzymatic activity (relative activity): 86
[6]; K-106, 30 °C., pH 7.0
  Enzymatic activity (relative activity): 100
[6]; K-106, 35 °C., pH 7.0
  Enzymatic activity (relative activity): 115
[6]; K-106, 40 °C., pH 7.0
  Enzymatic activity (relative activity): 119
[6]; K-106, 45 °C., pH 7.0
  Enzymatic activity (relative activity): 93
[6]; K-106, 50 °C., pH 7.0
  Enzymatic activity (relative activity): 44
[6]; K-106, pH 4.0, 30° C.
  Enzymatic activity (relative activity): 1
[6]; K-106, pH 5.0, 30° C.
  Enzymatic activity (relative activity): 48
[6]; K-106, pH 6.0, 30° C.
  Enzymatic activity (relative activity): 103
[6]; K-106, pH 7.0, 30° C.
  Enzymatic activity (relative activity): 100
[6]; K-106, pH 8.0, 30° C.
  Enzymatic activity (relative activity): 70
[6]; K-106, pH 9.0, 30° C.
  Enzymatic activity (relative activity): 6
[6]; enzyme from Strain K-106, NADPH
  Enzymatic activity per protein: 95 units/mg protein
[6]; enzyme from Strain K-106, purified enzyme solution, NADPH
  Enzymatic activity: 23.8 units/ml
[7]
  enzymatic activity using NADH as the coenzyme: ≤ 0.1 unit/ml
[8]
  product formed (substrate specificity): produced only Ca-2KLG
